Results: ChEMBL document CHEMBL3860092, “Recent progress on the discovery of antiamoebic agents” (Bioorg Med Chem Lett, 2016)

Tests used:
Entamoeba histolytica = assay: Antiamoebic activity against Entamoeba histolytica HM-1:IMSS trophozoites after 72 hrs by microdilution method; type: functional
[1] = Cytotoxicity against mouse Melan-a cells assessed as reduction in cell viability after 48 hrs by MTT assay; type: toxicity

Compound	IC50 (Entamoeba histolytica) [µM]	IC50 at 48 h [1] [µM]
Cc1ncc([N+](=O)[O-])n1CCOC(=O)Nc1ccc(OCc2ccc(F)c(F)c2)cc1	0.26	> 50
Cc1ncc([N+](=O)[O-])n1CCOC(=O)Nc1ccc(OCc2ccc(F)cc2)cc1	0.08	> 50
Cc1ncc([N+](=O)[O-])n1CCOC(=O)Nc1ccc(OCc2ccc(C#N)cc2)cc1	0.26	> 50
Cc1ncc([N+](=O)[O-])n1CCOC(=O)Nc1ccc(OCc2cccc(Cl)c2)cc1	0.15	> 50
Cc1ncc([N+](=O)[O-])n1CCO [METRONIDAZOLE]	1.78	–
Cc1ncc([N+](=O)[O-])n1CCOC(=O)Nc1ccc(OCc2ccc(C(F)(F)F)cc2)cc1	0.24	> 50
